The values below come from patent US20240382508A1, “REGENERATIVE AGENT FOR BONE TISSUE AND LUNG TISSUE, AND PHARMACEUTICAL COMPOSITION FOR REGENERATING BONE TISSUE AND LUNG TISSUE” (NIIGATA UNIVERSITY, priority 2021, published 2024).

In experiment [1] the test system is osteoblasts. Put plainly: bone nodule measurement in osteoblasts (Alizarin red S). To be noted: for formation of bone nodules (FIG. 1): erythromycin 10 μg/mL. Type of experiment: cell-based, mouse. The method, then: Next, from the cranial bones of 3-day-old wild-type mice (N=6, male C57BL/6N mice, manufactured by CLEA Japan, Inc.) and 3-day-old DEL-1-deficient mice (N=6, male C57BL/6N mice (manufactured by CLEA Japan, Inc.), a method for producing the deficient mice was as described in Non Patent Document 1), osteoblasts were isolated by allowing 0.1% by mass of type 1 collagenase and 0.2% by mass of dispase to act at 37° C. for 20 minutes, and the cells were cultured in α-MEM and a bone differentiation medium (containing 50 μg/ml ascorbic acid and 10 mM β-glycerol 2-phosphate). Ethanol (final concentration 0.1% by mass) and erythromycin (10 μg/mL) were added into the medium in which the osteoblasts (1×10^4 cells/mL) derived from the wild-type mice or the DEL-1-deficient mice were cultured. The medium was exchanged every 3 days, and after 15 days, the cells were stained with Alizarin red S, followed by performing of bone nodule measurement.
Next, the proportion (%) of bone nodules with respect to the observation region in the above-described osteoblasts was calculated from microscopic images by using image processing software (NIH Image). In addition, RNA was extracted from each of the osteoblasts by using an RNeasy Kit (manufactured by QIAGEN NV), subsequently cDNA was synthesized by using a cDNA synthesis kit (manufactured by Thermo Fisher Scientific, Inc.), and the relative expression levels of RUNX2 mRNA, Sp7 mRNA, and Bglap mRNA, which are important for bone regeneration, were checked by an RT-PCR method (Quantstudio3, Thermo Fisher Scientific, Inc.). Regarding primers, designed primers manufactured by Thermo Fisher Scientific, Inc. were used. The Assay IDs of the primers used are shown below.
(Bone regeneration-inducing effect 2 by various macrolide antimicrobial agents) From the cranial bones of 3-day-old wild-type mice (N=6, male C57BL/6N mice, manufactured by CLEA Japan, Inc.), osteoblasts were isolated by allowing 0.1% by mass of type 1 collagenase and 0.2% by mass of dispase to act at 37° C. for 20 minutes, and the cells were cultured in α-MEM and a bone differentiation medium (containing 50 μg/ml ascorbic acid and 10 mM β-glycerol 2-phosphate). Ethanol (final concentration 0.1% by mass), or erythromycin, clarithromycin, or azithromycin (10 μg/mL each) was added into the medium in which the osteoblasts (1×10^4 cells/mL) derived from the wild-type mice were cultured. The medium was exchanged every 3 days, and after 15 days, the cells were stained with Alizarin red S, followed by performing of bone nodule measurement. The results are shown in FIG. 11 In FIG. 11, the symbol * indicates p<0.05, and the symbol ** indicates p<0.01. In addition, the control is an ethanol (final concentration 0.1% by mass)-added group.

In experiment [2] the test system is DEL-1. Particulars: versus resolvin D1 or DHEA; Non-Patent Document 1; cited from earlier work.
In experiment [3] the test system is bone defects in the jawbones. Put plainly: jawbone defect regeneration in cynomolgus monkeys (microCT). The format is in vivo. Particulars: 200 μg at bone defect site, one month. The method, then: Bone defects with a diameter of 2 cm and a depth of 2 cm were artificially produced in the jawbones of young (2 years old) and aged (10 years old) cynomolgus monkeys by using a round steel bar. Next, 200 μg of each of erythromycin, clarithromycin, and azithromycin were added to the bone defect sites. As controls, a non-administered group and a group administered with 200 μg of REGROTH (registered trademark), which has been approved as a bone regenerative agent, were also prepared. The amount of bone regeneration after one month from the administration of each drug was checked by using microCT. In FIG. 10, the symbol * indicates p<0.01.

For experiment [4], the system named is iCell mesenchymal stem cells. In words: bone nodule measurement in mesenchymal stem cells induced from human iPS cells. The format is cell-based. To be noted: 10 μg/mL for each; 15 days; bone differentiation medium. The method, then: iCell (registered trademark) mesenchymal stem cells (iCell (registered trademark) MSCs) (#01279, manufactured by Fujifilm Corporation) (1×10^4 cells/mL) obtained by inducing human mesenchymal stem cells from iPS cells, were cultured in α-MEM and a bone differentiation medium (containing 50 μg/mL ascorbic acid and 10 mM β-glycerol 2-phosphate). Ethanol (final concentration 0.1% by mass), or erythromycin, clarithromycin, or azithromycin (10 μg/mL for each) was added to the medium. The medium was exchanged every 3 days, and after 15 days, the cells were stained with Alizarin red S, followed by performing of bone nodule measurement. The results are shown in FIG. 18 (stained images) and FIG. 19 (graph showing the proportion of bone nodules). In FIG. 18 and FIG. 19, the ethanol (final concentration 0.1% by mass)-added group is a control. In FIG. 19, the symbol * indicates p≤0.05, the symbol ** indicates p≤0.01, the symbol *** indicates p≤0.001, and the symbol **** indicates p≤0.0001.

Experiment [5] relates to α-SMA-positive mesenchymal stem cells. In words: immunofluorescence staining of periodontal tissue of experimental periodontitis mice. Type of experiment: in vivo, mouse. To be noted: wild-type mice; jawbone slices. The method, then: Next, jawbones of the wild-type mice to which erythromycin had or had not been administered were extracted and fixed, and then slice preparations were produced. Next, immunofluorescence staining was performed by using an anti-α-SMA antibody (manufactured by Abcam, Ltd.) fluorescently labeled with Alexa Fluor (registered trademark) 488 (manufactured by Thermo Fisher Scientific, Inc.), an anti-CD31/PECAM-1 antibody (manufactured by Thermo Fisher Scientific, Inc.) fluorescently labeled with Alexa Fluor (registered trademark) 647 (manufactured by Thermo Fisher Scientific, Inc.), and an anti-Ki67 antibody (manufactured by R&D Systems, Inc.) fluorescently labeled with Alexa Fluor (registered trademark) 594 (manufactured by Thermo Fisher Scientific, Inc.). Observation images (magnification: 200 times) obtained with a fluorescence microscope (ECLIPSE Ni-E, manufactured by Nikon Corporation) are shown in FIG. 5.

Molecules are shown by their SMILES.

Regarding `CC[C@H]1OC(=O)[C@H](C)[C@@H](O[C@H]2C[C@@](C)(OC)[C@@H](O)[C@H](C)O2)[C@H](C)[C@@H](O[C@@H]2O[C@H](C)C[C@H](N(C)C)[C@H]2O)[C@](C)(O)C[C@@H](C)C(=O)[C@H](C)[C@@H](O)[C@]1(C)O` [erythromycin], the “proportion of bone nodules (FIG. 2)” value is “an increase in the proportion of bone nodules was not recognized” in experiment [1] (osteoblasts derived from DEL-1-deficient mice) and “significant increases in the proportion of bone nodules was recognized” in experiment [1] (osteoblasts derived from wild-type mice). For the same compound, the “formation of bone nodules (FIG. 1)” value in experiment [1] (osteoblasts derived from DEL-1-deficient mice, 15 days) is recorded as “the formation of bone nodules was not recognized”; in experiment [1] (osteoblasts derived from wild-type mice, 15 days), “the formation of bone nodules was recognized”. Moreover, in experiment [1] (osteoblasts derived from wild-type mice, 10 μg/mL each, 15 days), the “formation of bone nodules (FIG. 11)” value was “the formation of bone nodules was recognized”. For the same compound, the “DEL-1 induction potency relative to resolvin D1 or DHEA” value in experiment [2] is “about three”. Besides, the “bone regeneration effect (FIG. 10)” value in experiment [3] (aged (10 years old) cynomolgus monkeys) and in experiment [3] (young (2 years old) cynomolgus monkeys) was “a bone regeneration effect was recognized” throughout. Also, the “formation of bone nodules (FIG. 18, FIG. 19)” value in experiment [4] was “the formation of bone nodules was recognized”. Besides, in experiment [5], the “proportion of α-SMA-positive mesenchymal stem cells (FIG. 5)” value is given as “the proportion of α-SMA-positive mesenchymal stem cells was increased”.
